{
  "source": "patent US11484608B2",
  "about": "“Non-invasive assessment of hepatic mitochondrial metabolism by positional isotopomer NMR tracer analysis (PINTA)” (YALE UNIVERSITY, priority 2017, dated 2022)",
  "key": {"[1]": {"test_system": "hepatic glucose production, VPC and VCS (InsP3R-I signaling)", "test": "Acute 2 hr glucagon infusion in WT and liver-specific InsP3R-I KO mice", "format": "in vivo, mouse", "excerpt": "All protocols were approved by the Yale University Animal Care and Use Committee. Liver-specific InsP3R-I KO mice were generated as described (Feriod, et al. Hepatology Communications 1, 23-35, 2017) and in all experiments, littermates were studied at 10-12 weeks of age. They were fed standard chow (Teklad #2018) and housed on a 12 hr light/dark cycle in the Yale Animal Resources Center. To knock down ATGL in a liver-specific manner, an adeno-associated virus targeting ATGL (Vector BioLabs, 10^12 gc per mouse) was administered by retro-orbital injection four weeks prior to studies. Male mice were used for in vivo studies, while female mice were used for in vitro studies, unless otherwise specified. One week prior to in vivo studies, mice underwent surgery under isoflurane anesthesia to place a catheter in the jugular vein. Post-surgical recovery was confirmed by regaining the pre-surgical body weight prior to any in vivo studies. They were fasted overnight, unless otherwise stated, prior to in vivo studies. […] Mice were euthanized using IV pentobarbital at the conclusion of the terminal study.\nIn the rat studies, blood was collected from the jugular venous catheter. In both species, samples were immediately centrifuged (12,000 rpm) to separate plasma from red blood cells. PINTA analysis of hepatic mitochondrial fluxes was employed in both rats and mice (see Example 1). Briefly, mice were infused with a two-hour primed (5 min, 3×)-continuous infusion of [3-^13C] lactate (40 μmol kg^−1 min^−1) and [1,2,3,4,5,6,6-^2H7] glucose (0.1 mg kg^−1 min^−1). Rats were infused with lactate at the same rate, as well as [3-^3H] glucose (0.1 mCi kg^−1 min^−1). At the conclusion of the study, animals were euthanized with IV pentobarbital.\nTotal glucose turnover (i.e. hepatic glucose production) was measured by determining the specific activity of [^3H] glucose in plasma using a scintillation counter, and the VPC/VHGP ratio was calculated using the equation\n[formula] and calculated absolute VCS by dividing VPC by VPC/VCS. The derivations of each equation are described in detail in Example 1. The possible contribution of [^13C] bicarbonate to label the TCA cycle was corrected for as follows. Liver [^13C] bicarbonate enrichment was measured by GC-MS (HP-1 column: 12 m×0.2 mm×0.33 μm film, isothermal: 110° C.). Liver tissue (˜[…]) was placed in a GC-MS vial, purged with N2 gas, and sealed. To each sample, a saturated aqueous solution of citric acid (50 μl) was injected into the vial through the cap. After ten minutes, CO2 was sampled from the head-space and ions with m/z 44 and 45 daltons were monitored using electron impact ionization.\nPlasma glucose concentrations were measured using a YSI Glucose Analyzer. […] Plasma NEFA concentrations were measured using the Wako NEFA assay, while plasma glycerol and plasma and liver amino acid concentrations were measured by GC/MS. […] Protein concentrations were measured by Western blot, using antibodies from Santa Cruz (PC, PEPCK, CAMKII), Cell Signaling (ATGL, pCAMKIV, CAMKIV, pCRTC2, CRTC2, pACC, ACC, pAMPK, AMPK, pHSL, HSL, GAPDH, and β-actin), Novus Biologicals (pCAMKII), Abcam (pATGL), LSBio (pInsP3R-I), and BD Transduction Laboratories (InsP3R-II, InsP3R-III, PKCε)."}, "[2]": {"test_system": "NAFLD and glucose tolerance (InsP3R-I dependent)", "test": "Chronic 3.5 week glucagon infusion in high fat fed WT and InsP3R-I KO mice", "format": "in vivo, mouse", "method": "They underwent CLAMS metabolic cage analysis to assess energetics and food and water intake during the second week of glucagon infusion. […] 48 hr later, after a 6 hr fast, they were sacrificed under isoflurane anesthesia for measurement of hepatic lipid content as described below.\nIn the glucose tolerance tests, rodents were injected with 1 g kg^−1 50% dextrose (rats) or 10% dextrose (mice) intraperitoneally. Blood samples were taken through the venous catheter (rats) or by tail bleeding (mice) for measurement of plasma glucose and insulin concentrations as described below (Biochemical analysis).\nPlasma glucose concentrations were measured using a YSI Glucose Analyzer. […] Plasma NEFA concentrations were measured using the Wako NEFA assay, while plasma glycerol and plasma and liver amino acid concentrations were measured by GC/MS. Liver acetyl- and malonyl-CoA (standard curve R^2=0.999 and 0.999), long-chain CoA, DAG, and ceramide concentrations were measured by LC-MS/MS, hepatic glycogen content following amyloglucosidase digestion, and TAG concentrations enzymatically. cAMP concentrations were measured using the Enzo Life Sciences Direct cAMP ELISA. Protein concentrations were measured by Western blot, using antibodies from Santa Cruz (PC, PEPCK, CAMKII), Cell Signaling (ATGL, pCAMKIV, CAMKIV, pCRTC2, CRTC2, pACC, ACC, pAMPK, AMPK, pHSL, HSL, GAPDH, and β-actin), Novus Biologicals (pCAMKII), Abcam (pATGL), LSBio (pInsP3R-I), and BD Transduction Laboratories (InsP3R-II, InsP3R-III, PKCε). The antibody to pATGL was kindly provided by Dr. Hei Sook Sul, while the antibody to total InsP3R-I was custom-made using an epitope against the last 18 amino acids of InsP3R-I. Gluconeogenic gene mRNA expression was measured by qPCR^45 using primers sequences as follows: […]"}},
  "data": [
    {"substance": "glucagon", "values": [
      {"measurement": "hepatic CAMKII phosphorylation", "setting": "[1]; InsP3R-I-dependent, CAMKIV not", "result": "stimulated"},
      {"measurement": "increases in rates of HGP", "setting": "[1]; PINTA, acute glucagon infusion", "result": "~25", "unit": "%"},
      {"measurement": "increase in InsP3R-I phosphorylation", "setting": "[1]; WT livers", "result": "two-fold"},
      {"measurement": "increase in hepatic mitochondrial oxidation (VCS)", "setting": "[1]; WT mice", "result": "five-fold"},
      {"measurement": "plasma non-esterified fatty acid (NEFA) concentrations", "setting": "[1]; WT mice", "result": "reduced"},
      {"measurement": "increase in hepatic ATGL S406 phosphorylation", "setting": "[1]; WT mice in vivo, not InsP3R-I KO", "result": "three-fold"},
      {"measurement": "plasma glucose and insulin concentrations", "setting": "[1]; WT mice, acute glucagon infusion", "result": "modest increase"},
      {"measurement": "increase in hepatic pyruvate dehydrogenase flux (VPDH)", "setting": "[1]; WT mice, not InsP3R-I KO", "result": 7, "unit": "fold"},
      {"measurement": "hepatic malonyl-CoA content", "setting": "[1]; acute glucagon infusion", "result": "independently of any changes"},
      {"measurement": "increases in hepatic long-chain acyl-CoA and acetyl-CoA content", "setting": "[1]; acute glucagon infusion", "result": "35-60%"},
      {"measurement": "VPK as percentage of hepatic VPC flux", "setting": "[1]; acute glucagon study", "result": "15-35%"},
      {"measurement": "cAMP concentrations, protein kinase A activity, CRTC2 phosphorylation (liver)", "setting": "[1]; both genotypes", "result": "increased"},
      {"measurement": "hormone-sensitive lipase (HSL) phosphorylation", "setting": "[1]; both genotypes", "result": "increased"},
      {"measurement": "hepatic mitochondrial oxidation", "setting": "[1]; liver-specific InsP3R-I knockout mice", "result": "failed to exhibit any increases"},
      {"measurement": "pyruvate kinase flux (VPK)", "setting": "[1]; mice infused with glucagon", "result": "without any difference"},
      {"measurement": "hepatic lipid content or glucose tolerance", "setting": "[2]; diet-induced obese InsP3R-I KO mice", "result": "did not manifest any alterations"},
      {"measurement": "body weight, food and water intake, activity and energy expenditure", "setting": "[2]; diet-induced obese WT mice", "result": "unchanged"},
      {"measurement": "glucose tolerance", "setting": "[2]; diet-induced obese WT mice", "result": "marked improvement"},
      {"measurement": "hepatic ceramide concentrations", "setting": "[2]; diet-induced obese WT mice", "result": "without any alterations"},
      {"measurement": "reductions in liver triglyceride and diacylglycerol content and PKCε translocation", "setting": "[2]; diet-induced obese WT mice, four-week continuous glucagon infusion", "result": "50-80%"}
    ]}
  ]
}
